Data from patent publication US20110053925A1, “Hydroxamate-Based Inhibitors of Deacetylases” (Novartis AG, priority 2009, published 2011).
pIC50: −log10 of the molar value.

Legend:
[1] = target: T1, HDAC-1 (Homo sapiens, UniProt Q13547); assay: HDAC Inhibition Assay (purified GST-HDAC protein); assay type: biochemical
T1 construct: made in house; host or cells: Sf9 or Sf21 insect cells (baculovirus, donor vector pFB-GSTX3)
Description: The baculovirus donor vector pFB-GSTX3 is used to generate a recombinant baculovirus that can express the HDAC polypeptide. Transfer vectors containing the HDAC coding region are transfected into the DH10Bac cell line (GIBCO) and plated on selective agar plates. Colonies without insertion of the fusion sequence into the viral genome (carried by the bacteria) are blue. Single, white colonies are picked and viral DNAs (bacmid) are isolated from the bacteria by standard plasmid purification procedures. Sf9 cells or Sf21 (American Type Culture Collection) cells are then transfected in […] flasks with the viral DNA using Cellfectin reagent.
Virus-containing media is collected from the transfected cell culture and used for infection to increase its titer. Virus-containing media obtained after two rounds of infection is used for large-scale protein expression. For large-scale protein expression 100 cm^2 round tissue culture plates are seeded with 5×10^7 cells/plate and infected with 1 mL of virus-containing media (at an approximately MOI of 5). After 3 days, the cells are scraped off the plate and centrifuged at 500 rpm for 5 minutes. Cell pellets from 10-20, 100 cm^2 plates, are re-suspended in 50 mL of ice-cold lysis buffer (25 mM tris-HCl, pH 7.5, 2 mM EDTA, 1% NP-40, 1 mM DTT, 1 mM P MSF). The cells are stirred on ice for 15 minutes and then centrifuged at 5,000 rpms for 20 minutes.
The centrifuged cell lysate is loaded onto a 2 mL glutathione-sepharose column (Pharmacia) and is washed thrice with 10 mL of 25 mM tris-HCl, pH 7.5, 2 mM EDTA, 1 mM DTT, 200 mM NaCl. The GST-tagged proteins are then eluted by 10 applications (1 mL each) of 25 mM tris-HCl, pH 7.5, 10 mM reduced-glutathione, 100 mM NaCl, 1 mM DTT, 10% glycerol and stored at −70° C.
HDAC assays with purified GST-HDAC protein are carried out in a final volume of 30 μL containing 15 ng of GST-HDAC protein, 20 mM tris-HCl, pH 7.5, 1 mM MnCl2, 10 mM MgCl2, 1 mM DTT, 3 μg/mL poly(Glu,Tyr) 4:1, 1% DMSO, 2.0 μM ATP (γ-[^33P]-ATP 0.1 μCi). The activity is assayed in the presence or absence of inhibitors. […] Subsequently, […] of the reaction mixture are transferred onto EMMOBILON-PVDF membrane (Millipore) previously soaked for 5 minutes with methanol, rinsed with water, then soaked for 5 minutes with 0.5% H3PO4 and mounted on vacuum manifold with disconnected vacuum source. After spotting all samples, a vacuum is connected and each well rinsed with 200 μL 0.5% H3PO4. Membranes are removed and washed four times on a shaker with 1.0% H3PO4, once with ethanol. Membranes are counted after drying at ambient temperature, mounting in Packard TopCount 96-well frame, and addition of 10 μL/well of MICROSCINT™ (Packard).
• Input: 3×4 μL stopped assay on IMMOBILON membrane, not washed • Background (3 wells): assay with H2O instead of enzyme • Positive control (4 wells): 3% DMSO instead of compound • Bath control (1 well): no reaction mix
In each experiment, the actual inhibition by reference compound is used for normalization of IC50 values to the basis of an average value of the reference inhibitor:
Normalized IC50=measured IC50 average ref. IC50/measured ref. IC50

[2] = test system: HCT116; assay: HCT116 IC50; assay type: cell-based; conditions: Homo sapiens, HCT-116

T1 sequence (Q13547 whole entry, species assumed): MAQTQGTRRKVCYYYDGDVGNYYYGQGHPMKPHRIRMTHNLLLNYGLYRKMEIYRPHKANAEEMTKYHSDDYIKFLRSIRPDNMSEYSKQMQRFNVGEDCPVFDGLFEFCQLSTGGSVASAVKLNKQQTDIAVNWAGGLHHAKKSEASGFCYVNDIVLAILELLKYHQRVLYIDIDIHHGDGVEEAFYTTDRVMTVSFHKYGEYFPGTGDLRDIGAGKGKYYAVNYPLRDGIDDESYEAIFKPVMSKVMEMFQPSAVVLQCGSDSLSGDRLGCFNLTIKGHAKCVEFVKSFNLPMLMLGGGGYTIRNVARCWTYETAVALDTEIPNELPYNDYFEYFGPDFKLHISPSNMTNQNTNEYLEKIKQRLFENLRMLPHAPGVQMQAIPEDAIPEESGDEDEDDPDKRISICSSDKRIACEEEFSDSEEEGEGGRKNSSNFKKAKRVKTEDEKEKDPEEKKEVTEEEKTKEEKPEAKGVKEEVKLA

pIC50 [1] | pIC50 [2] | Structure (SMILES)
8.22 | 8.55 | CC(C)(O)c1[nH]c2ccccc2c1C1CCCN(Cc2ccc(/C=C/C(=O)NO)cc2F)C1 (centres unmarked) [Compound 13, (E)-3-(3-Fluoro-4-{3-[2-(1-hydroxy-1-methyl-ethyl)-1H-indol-3-yl]-piperidin-1-ylmethyl}-phenyl)-N-hydroxy-acrylamide]
8.15 | 8.22 | C=C(C)c1[nH]c2ccccc2c1C1CCCN(Cc2ccc(/C=C/C(=O)NO)cc2F)C1 (centres unmarked) [Compound 14, (E)-3-{3-Fluoro-4-[3-(2-isopropenyl-1H-indol-3-yl)-piperidin-1-ylmethyl]-phenyl}-N-hydroxy-acrylamide]
8.22 | 7.68 | CC(C)c1[nH]c2ccccc2c1C1CCCN(Cc2ccc(CCC(=O)NO)cc2F)C1 (centres unmarked) [Compound 21, 3-{3-Fluoro-4-[3-(2-isopropyl-1H-indol-3-yl)-piperidin-1-ylmethyl]-phenyl}-N-hydroxy-propionamide]

Second part, the compound before the results:

Structure (SMILES) | pIC50 [1] | pIC50 [2]
CC(C)(C)c1[nH]c2ccccc2c1C1CCCN(Cc2ccc(/C=C/C(=O)NO)cc2Cl)C1 (centres unmarked) [Compound 12, (E)-3-{4-[3-(2-tert-Butyl-1H-indol-3-yl)-piperidin-1-ylmethyl]-3-chloro-phenyl}-N-hydroxy-acrylamide] | 7.72 | 8.30
O=C(/C=C/c1ccc(CN2CCCC(c3c(-c4ccccc4)[nH]c4ccccc34)C2)c(F)c1)NO (centres unmarked) [Compound 15, (E)-3-{3-Fluoro-4-[3-(2-phenyl-1H-indol-3-yl)-piperidin-1-ylmethyl]-phenyl}-N-hydroxy-acrylamide] | 7.96 | 8.28
CCOC(=O)c1[nH]c2ccccc2c1C1CCCN(Cc2ccc(/C=C/C(=O)NO)cc2F)C1 (centres unmarked) [Compound 17, 3-{1-[2-Fluoro-4-((E)-2-hydroxycarbamoyl-vinyl)-benzyl]-piperidin-3-yl}-1H-indole-2-carboxylic acid ethyl ester] | 7.36 | 7.85
O=C(/C=C/c1ccc(CN2CCCC(c3c(C(=O)NO)[nH]c4ccccc34)C2)c(F)c1)NO (centres unmarked) [Compound 18, 3-{1-[2-Fluoro-4-((E)-2-hydroxycarbamoyl-vinyl)-benzyl]-piperidin-3-yl}-1H-indole-2-carboxylic acid hydroxyamide] | 7.51 | 7.43
O=C(/C=C/c1ccc(CN2CCCC(c3c(C(=O)N4CCOCC4)[nH]c4ccccc34)C2)c(F)c1)NO (centres unmarked) [Compound 19, (E)-3-(3-Fluoro-4-{3-[2-(morpholine-4-carbonyl)-1H-indol-3-yl]-piperidin-1-ylmethyl}-phenyl)-N-hydroxy-acrylamide] | 7.66 | 6.30
Cc1[nH]c2ccc(N3CCOCC3)cc2c1C1CCCN(Cc2ccc(/C=C/C(=O)NO)cc2)C1 (centres unmarked) [Compound 20, (E)-N-Hydroxy-3-{4-[3-(2-methyl-5-morpholin-4-yl-1H-indol-3-yl)-piperidin-1-ylmethyl]-phenyl}-acrylamide] | 8.15 | 7.89
O=C(/C=C/c1ccc(CN2CCOC(c3cc(-c4ccccc4)no3)C2)cc1)NO (centres unmarked) [Compound 24, (E)-N-Hydroxy-3-{4-[2-(3-phenyl-isoxazol-5-yl)-morpholin-4-ylmethyl]-phenyl}-acrylamide] | 7.49 | 6.33
